Assay: AQMN content before and after freeze drying
Format: physicochemical
Conditions: 40 mg/ml, 10 mM sodium phosphate buffer pH 7.0
Protocol: Formulated AQ4N material was prepared at 40 mg/ml in 10 mM sodium phosphate buffer at pH 7.0. A portion of this solution was filled into ampoules and the remained into vials and freeze dried according to the cycle as specified in Tables 9 and 10.
The AQMN content of the samples before and after freeze drying (ampoule fill and vial fill, respectively) were measured as shown in Table 11.

- AQMN content (% peak area w.r.t. std.): 22.6%
Compound: C[N+](C)([O-])CCNc1ccc(NCC[N+](C)(C)[O-])c2c1C(=O)c1c(O)ccc(O)c1C2=O [AQ4N raw material]

Source: US20070027136A1, “Formulations of anthraquinone derivatives” (priority 2003, published 2007)
